Literature values in patent publication US20190328772A1, “OPHTHALMIC COMPOSITIONS COMPRISING A CYCLODEXTRIN AS SOLE ACTIVE AGENT” (priority 2016, published 2019).
Where two headings read alike, the source gives them in different places.

How the values were obtained:
[1] = tested on: corneal epithelium of rabbits
mouse brown fat tissue = settings: concentrations of 25-40%, 24 hours
drusen = settings: 37° C., 24 hours

Compound: CC(O)COC[C@H]1O[C@@H]2O[C@H]3[C@H](O)[C@@H](O)[C@@H](O[C@H]4[C@H](O)[C@@H](O)[C@@H](O[C@H]5[C@H](O)[C@@H](O)[C@@H](O[C@H]6[C@H](O)[C@@H](O)[C@@H](O[C@H]7[C@H](O)[C@@H](O)[C@@H](O[C@H]8[C@H](O)[C@@H](O)[C@@H](O[C@H]1[C@H](O)[C@H]2O)O[C@@H]8COCC(C)O)O[C@@H]7COCC(C)O)O[C@@H]6COCC(C)O)O[C@@H]5COCC(C)O)O[C@@H]4COCC(C)O)O[C@@H]3COCC(C)O (stereo partly drawn) [HP-β-CD, Hydroxypropyl-β-cyclodextrin]
- toxicity or irritation in rabbit eyes ([1]; rabbit, in vivo): not to be toxic or irritating
- removal of mouse brown fat tissue (mouse brown fat tissue): able to partially remove mouse brown fat tissue
- dissolving the lipid component in drusen (drusen; 40 ml of 25%, sections of a cut up human eye): efficacy in dissolving the lipid component in drusen
- change of drusen by H&E staining (drusen; 40 ml of different concentrations, eye sections): no change

Compound: randomly methylated β-CD [RM-β-CD]
- toxicity to the corneal epithelium of rabbits ([1]; concentration 5%): can be toxic

Compound: β-Cyclodextrin sulfobutyl ether [SBE-β-CD]
- toxicity or irritation in rabbit eyes ([1]; solution of 10%): not to be toxic or irritating
